Tested on: Jurkat cells
Assay: (r) Cell cytotoxicity assay
Format: cell-based, human
Details: 24 hours
Description: 1×10^5 Jurkat cells (immortalised human T lymphocytes) are added to the appropriate number of wells of a 96 well plate in 100 μL of media (RPMI supplemented with 10% foetal bovine serum). 1 μL of DMSO control (final concentration 1.0% v/v) or test compound (final concentration 20, 5 or 1 μg/mL) is added to the wells and incubated at 37° C., 5% CO2. After 24 hours, the plate is centrifuged at 1200 rpm for 3 minutes and the supernatant discarded. Cells are then resuspended in 150 μL (final concentration 7.5 μg/mL) of propidium iodide (PI) in PBS and incubated at 37° C., 5% CO2 for 15 minutes. After 15 minutes, cells are analysed by flow cytometry (BD accuri) using the FL3 window. The % viability is calculated as the % of cells that are PI negative in the test wells normalised to the DMSO control.

Structure (SMILES)	% Viability at 1 μg/mL [%]	% Viability at 5 μg/mL [%]	% Viability at 20 μg/mL [%]
COc1cc(Nc2cc(Oc3ccc(NC(=O)Nc4cc(C(C)(C)C)cc(NS(C)(=O)=O)c4OC)c4ccccc34)ccn2)ccc1S(=O)(=O)CCCN1CCN(C)CC1 [17(ch), N-(5-(tert-Butyl)-2-methoxy-3-(3-(4-((2-((3-methoxy-4-((3-(4-methylpiperazin-1-yl)propyl)sulfonyl)phenyl)amino)pyridin-4-yl)oxy)naphthalen-1-yl)ureido)phenyl)methanesulfonamide]	82.0	10.2	0.7
COc1c(NC(=O)Nc2ccc(Oc3ccnc(Nc4ccc(C(=O)O)c(N(C)C)c4)n3)c3ccccc23)cc(C(C)(C)C)cc1NS(C)(=O)=O [17(bc), 4-((4-((4-(3-(5-(tert-Butyl)-2-methoxy-3-(methylsulfonamido)phenyl)ureido)naphthalen-1-yl)oxy)pyrimidin-2-yl)amino)-2-(dimethylamino)benzoic acid]	93.9	89.2	10.8
COc1cc(Nc2cc(Oc3ccc(NC(=O)Nc4cc(C(C)(C)C)cc(NS(C)(=O)=O)c4OC)c4ccccc34)ccn2)cc(OC)c1C(=O)NC1CCN(C)CC1 [17(bz), 4-((4-((4-(3-(5-(tert-Butyl)-2-methoxy-3-(methylsulfonamido)phenyl)ureido)naphthalen-1-yl)oxy)pyridin-2-yl)amino)-2,6-dimethoxy-N-(1-methylpiperidin-4-yl)benzamide]	93.6	92.7	64.1
COc1cc(Nc2cc(Oc3ccc(NC(=O)Nc4cc(C(C)(C)C)cc(NS(C)(=O)=O)c4OC)c4ccccc34)ccn2)cc(OC)c1C(=O)NCCCN1CCOCC1 [Example 23, 4-((4-((4-(3-(5-(tert-Butyl)-2-methoxy-3-(methylsulfonamido)phenyl)ureido)naphthalen-1-yl)oxy)pyridin-2-yl)amino)-2,6-dimethoxy-N-(3-morpholinopropyl)benzamide]	92.4	88.9	89.8
COc1cc(Nc2cc(Oc3ccc(NC(=O)Nc4cc(C(C)(C)C)cc(NS(C)(=O)=O)c4OC)c4ccccc34)ccn2)cc(OC)c1C(=O)NCCC1CCN(C)CC1 [17(at), 4-((4-((4-(3-(5-(tert-Butyl)-2-methoxy-3-(methylsulfonamido)phenyl)ureido)naphthalen-1-yl)oxy)pyridin-2-yl)amino)-2,6-dimethoxy-N-(2-(1-methylpiperidin-4-yl)ethyl)benzamide]	95.2	93.2	86.6
COc1cc(Nc2cc(Oc3ccc(NC(=O)Nc4cc(C(C)(C)C)cc(NS(C)(=O)=O)c4OC)c4ccccc34)ccn2)ccc1C(=O)NCC(=O)O [17(ar), 2-(4-((4-((4-(3-(5-(tert-Butyl)-2-methoxy-3-(methylsulfonamido)phenyl)ureido)naphthalen-1-yl)oxy)pyridin-2-yl)amino)-2-methoxybenzamido)acetic acid]	96.1	96.2	95.3
COc1cc(Nc2cc(Oc3ccc(NC(=O)Nc4cc(C(C)(C)C)cc(NS(C)(=O)=O)c4OC)c4ccccc34)ccn2)ccc1C(=O)NC(C)CN1CCN(C)CC1 (stereo not drawn) [17(bl), 4-((4-((4-(3-(5-(tert-Butyl)-2-methoxy-3-(methylsulfonamido)phenyl)ureido)naphthalen-1-yl)oxy)pyridin-2-yl)amino)-2-methoxy-N-(1-(4-methylpiperazin-1-yl)propan-2-yl)benzamide]	103.6	0.2	0.5
COc1cc(Nc2cc(Oc3ccc(NC(=O)Nc4cc(C(C)(C)C)cc(NS(C)(=O)=O)c4OC)c4ccccc34)ccn2)ccc1C(=O)NCCC1CCNCC1 [Example 27, 4-((4-((4-(3-(5-(tert-Butyl)-2-methoxy-3-(methylsulfonamido)phenyl)ureido)naphthalen-1-yl)oxy)pyridin-2-yl)amino)-2-methoxy-N-(2-(piperidin-4-yl)ethyl)benzamide]	101.2	94.9	1.7
COc1cc(Nc2cc(Oc3ccc(NC(=O)Nc4cc(C(C)(C)C)cc(NS(C)(=O)=O)c4OC)c4ccccc34)ccn2)ccc1C(=O)NCCCC[C@H](N)C(=O)O [17(bu), (S)-2-Amino-6-(4-((4-((4-(3-(5-(tert-butyl)-2-methoxy-3-(methylsulfonamido)phenyl)-ureido)naphthalen-1-yl)oxy)pyridin-2-yl)amino)-2-methoxybenzamido)hexanoic acid]	92.6	92.6	91.7
COc1cc(Nc2nccc(Oc3ccc(NC(=O)Nc4cc(C(C)(C)C)cc(NS(C)(=O)=O)c4OC)c4ccccc34)n2)ccc1C(=O)NCCOCCOCCO [17(by), 4-((4-((4-(3-(5-(tert-Butyl)-2-methoxy-3-(methylsulfonamido)phenyl)ureido)naphthalen-1-yl)oxy)pyrimidin-2-yl)amino)-N-(2-(2-(2-hydroxyethoxy)ethoxy)ethyl)-2-methoxybenzamide]	102.4	81.5	1.6
COc1cc(Nc2cc(Oc3ccc(NC(=O)Nc4cc(C(C)(C)C)cc(NS(C)(=O)=O)c4OC)c4ccccc34)ccn2)ccc1C(=O)NCCN1CCN(C)CC1(C)C [17(bi), 4-((4-((4-(3-(5-(tert-Butyl)-2-methoxy-3-(methylsulfonamido)phenyl)ureido)naphthalen-1-yl)oxy)pyridin-2-yl)amino)-2-methoxy-N-(2-(2,2,4-trimethylpiperazin-1-yl)ethyl)benzamide]	97.4	0.8	0.6
COc1cc(Nc2cc(Oc3ccc(NC(=O)Nc4cc(C(C)(C)C)cc(NS(C)(=O)=O)c4OC)c4ccccc34)ccn2)ccc1C(=O)N(C)CCN1CCOCC1 [17(ab), 4-[[4-[[4-[[5-tert-butyl-3-(methanesulfonamido)-2-methoxy-phenyl]carbamoylamino]-1-naphthyl]oxy]-2-pyridyl]amino]-2-methoxy-N-methyl-N-(2-morpholinoethyl)benzamide]	108.6	95.6	93.9
COc1cc(Nc2cc(Oc3ccc(NC(=O)Nc4cc(C(C)(C)C)cc(NS(C)(=O)=O)c4OC)c4ccccc34)ccn2)ccc1C(=O)NCCN1CCN(C(C)C)CC1 [17(bf), 4-((4-((4-(3-(5-(tert-Butyl)-2-methoxy-3-(methylsulfonamido)phenyl)ureido)naphthalen-1-yl)oxy)pyridin-2-yl)amino)-N-(2-(4-isopropylpiperazin-1-yl)ethyl)-2-methoxybenzamide]	90.7	1.5	0.6
COc1cc(Nc2cc(Oc3ccc(NC(=O)Nc4cc(C(C)(C)C)cc(NS(C)(=O)=O)c4OC)c4ccccc34)ccn2)ccc1C(=O)NC[C@@H]1O[C@H](CO)[C@@H](O)[C@H](O)[C@H]1O [17(co), 4-((4-((4-(3-(5-(tert-Butyl)-2-methoxy-3-(methylsulfonamido)phenyl)ureido)naphthalen-1-yl)oxy)pyridin-2-yl)amino)-2-methoxy-N-(((2S,3R,4R,5S,6R)-3,4,5-trihydroxy-6-(hydroxymethyl)tetrahydro-2H-pyran-2-yl)methyl)benzamide]	94.5	93.3	92.2
COc1cc(Nc2cc(Oc3ccc(NC(=O)Nc4cc(C(C)(C)C)cc(NS(C)(=O)=O)c4OC)c4ccccc34)ccn2)ccc1C(=O)NCCOCCO [17(bm), 4-((4-((4-(3-(5-(tert-Butyl)-2-methoxy-3-(methylsulfonamido)phenyl)ureido)naphthalen-1-yl)oxy)pyridin-2-yl)amino)-N-(2-(2-hydroxyethoxy)ethyl)-2-methoxybenzamide]	103.6	0.2	0.5
COc1cc(Nc2cc(Oc3ccc(NC(=O)Nc4cc(C(C)(C)C)cc(C(N)=O)c4OC)c4ccccc34)ccn2)ccc1C(=O)O [Example 3, 4-((4-((4-(3-(5-(tert-Butyl)-3-carbamoyl-2-methoxyphenyl)ureido)naphthalen-1-yl)oxy)pyridin-2-yl)amino)-2-methoxybenzoic acid]	93.4	95.9	91.9
COc1c(NC(=O)Nc2ccc(Oc3ccnc(Nc4ccc(C(=O)NCCOCCOCCO)c(N(C)C)c4)c3)c3ccccc23)cc(C(C)(C)C)cc1NS(C)(=O)=O [17(bt), 4-((4-((4-(3-(5-(tert-Butyl)-2-methoxy-3-(methylsulfonamido)phenyl)ureido)naphthalen-1-yl)oxy)pyridin-2-yl)amino)-2-(dimethylamino)-N-(2-(2-(2-hydroxyethoxy)ethoxy)ethyl) benzamide]	89.8	39.9	22.5
COc1cc(Nc2cc(Oc3ccc(NC(=O)Nc4cc(C(C)(C)C)cc(NS(C)(=O)=O)c4OC)c4ccccc34)ccn2)cc(OC)c1C(=O)NCCCN1CCN(C)CC1 [17(au), 4-((4-((4-(3-(5-(tert-Butyl)-2-methoxy-3-(methylsulfonamido)phenyl)ureido)naphthalen-1-yl)oxy)pyridin-2-yl)amino)-2,6-dimethoxy-N-(3-(4-methylpiperazin-1-yl)propyl)benzamide]	94.0	91.8	80.6

— patent publication US10125100B2, “Kinase inhibitors” (Respivert Limited, priority 2014, dated 2018)
